Reference: patent US20120059162A1, “FUSED IMIDAZOLE DERIVATIVE HAVING TTK INHIBITORY ACTION” (Oncotherapy Science, Inc., priority 2009, published 2012)

How the values were obtained:
[1] = molecular target: T1, TTK (Homo sapiens, UniProt P33981); test: TTK assay: screening of TTK kinase activity suppressing action using p38 MAPK peptide; assay type: biochemical; conditions: read-out: TTK IC50
T1 sequence (P33981 1-857): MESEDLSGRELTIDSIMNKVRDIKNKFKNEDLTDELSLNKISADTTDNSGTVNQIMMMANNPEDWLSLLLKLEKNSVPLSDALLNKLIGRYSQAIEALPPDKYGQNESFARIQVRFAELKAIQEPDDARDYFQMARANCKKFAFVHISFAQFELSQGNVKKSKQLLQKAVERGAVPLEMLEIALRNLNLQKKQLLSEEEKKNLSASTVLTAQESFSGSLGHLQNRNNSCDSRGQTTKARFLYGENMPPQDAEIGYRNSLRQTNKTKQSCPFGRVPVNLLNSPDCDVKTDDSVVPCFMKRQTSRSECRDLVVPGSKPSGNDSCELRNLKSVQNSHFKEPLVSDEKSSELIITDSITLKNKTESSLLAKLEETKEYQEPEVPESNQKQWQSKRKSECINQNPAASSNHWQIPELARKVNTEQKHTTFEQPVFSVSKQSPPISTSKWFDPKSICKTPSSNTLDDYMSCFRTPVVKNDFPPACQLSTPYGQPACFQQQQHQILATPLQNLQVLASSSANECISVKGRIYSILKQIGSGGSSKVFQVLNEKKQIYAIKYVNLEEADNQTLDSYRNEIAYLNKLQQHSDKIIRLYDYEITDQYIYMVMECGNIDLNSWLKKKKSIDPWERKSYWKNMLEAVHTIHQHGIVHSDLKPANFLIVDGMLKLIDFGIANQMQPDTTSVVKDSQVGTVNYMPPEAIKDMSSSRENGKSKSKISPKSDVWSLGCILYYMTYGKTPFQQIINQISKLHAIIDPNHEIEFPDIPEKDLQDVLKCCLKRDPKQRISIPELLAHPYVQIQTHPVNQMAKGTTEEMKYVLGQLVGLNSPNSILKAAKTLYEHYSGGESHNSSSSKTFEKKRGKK
Summary of the method: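 TTK (4 μg/ml in enzyme solution) mixed with p38 MAPK peptide and ATP (each 60 μM in substrate solution) in Tris-HCl pH 7.5 with MgCl2, DTT, Na3VO4, β-glycerophosphate, BSA. Reaction aliquot captured on NeutrAvidin plate, detected with Eu-labelled anti-mouse IgG by time-resolved fluorescence; inhibition relative to no-compound signal.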

[2] = system: A549; test: A549 assay: screening of cancer cell growth inhibiting compound; assay type: cell-based; conditions: Homo sapiens; A549 cells; values given as IC50 intervals; read-out: A549 IC50
Summary of the method: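 A549 cells (1×10^4/ml) in D-MEM with 10% FBS were pre-incubated one day at 37 °C, then exposed to compound dilutions for three further days. Viable cell number read by WST-8 (1–4 hours), absorbance 450 nm (reference 620 nm); inhibition calculated relative to untreated wells.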

Structure (SMILES)	IC50 [1] [nM]	IC50 [2] [nM]
O=C(NC1CC1)c1ccc(-c2cnc3c(NCC4CCOCC4)cc(OC4C5CC6CC(C5)CC4C6)nn23)cc1 (centres unmarked) [Example 2-191]	3.9	50 to 500
O=C(NC1CC1)c1ccc(-c2cnc3c(NCC4CCOCC4)cc(OC45CC6CC(CC(C6)C4)C5)nn23)cc1 [Example 2-193]	6	50 to 500
COc1cc(C#N)ccc1-c1cc(NCC2CCOCC2)c2ncc(-c3ccc(C(=O)NC4CC4)cc3)n2n1 [Example 2-205]	4.5	≤ 50
N#Cc1ccc(-c2cc(NCC3CCOCC3)c3ncc(-c4ccc(C(=O)NC5CC5)cc4)n3n2)c(Cl)c1 [Example 2-206]	2.8	50 to 500
O=C(NC1CC1)c1ccc(-c2cnc3c(NCC4CCOCC4)cc(CC4CCCCC4)nn23)cc1 [Example 2-208]	7.1	50 to 500
O=C(NC1CC1)c1ccc(-c2cnc3c(NCC4CCOCC4)cc(C=C4CCCC4)nn23)cc1 [Example 2-209]	8.2	50 to 500
O=C(NC1CC1)c1ccc(-c2cnc3c(NCC4CCOCC4)cc(CC4CCCC4)nn23)cc1 [Example 2-210]	20.3	1000 to 10000
O=C(NC1CC1)c1ccc(-c2cnc3c(NCC4CCOCC4)cc(C4=CCNCC4)nn23)cc1 [Example 2-211]	8.3	50 to 500
O=C(NC1CC1)c1ccc(-c2cnc3c(NCC4CCOCC4)cc(C4CCNCC4)nn23)cc1 [Example 2-212]	23.1	1000 to 10000
O=C(NC1CC1)c1ccc(-c2cnc3c(NCC4CCOCC4)c(F)c(OC4CCCC4)nn23)cc1 [Example 2-217]	13.9	1000 to 10000
O=C(NC1CC1)c1ccc(-c2cnc3c(NCC4CCOCC4)c(Cl)c(NC4CCCC4)nn23)cc1 [Example 2-218]	12.6	500 to 1000
CC(C)(Nc1cc(NCC2CCOCC2)c2ncc(-c3ccc(C(=O)NC4CC4)c(F)c3)n2n1)C(F)(F)F [Example 2-219]	4.3	≤ 50
O=C(NC1CC1)c1ccc(-c2cnc3c(NCC4CCOCC4)cc(NC4CCCC4)nn23)c(F)c1 [Example 2-227]	3.5	50 to 500
O=C(NC1CC1)c1ccc(-c2cnc3c(NCC4CCOCC4)cc(NC4CCCC4)nn23)cc1F [Example 2-228]	3.6	50 to 500
O=C(NC1CC1)c1ccc(-c2cnc3c(NCC4CCOCC4)cc(NC4CCCC4)nn23)cc1O [Example 2-229]	4.4	50 to 500
O=C(NC1CC1)c1ccc(-c2nnc3c(NCC4CCOCC4)cc(NC4CCCC4)nn23)cc1 [Example 3-3, 4-(6-(Cyclopentylamino)-8-((tetrahydro-2H-pyran-4-yl)methylamino)-[1,2,4]triazolo[4,3-b]pyridazin-3-yl)-N-cyclopropylbenzamide]	145	1000 to 10000

The remaining compounds from weak to strong by IC50 [1], led by results:

IC50 [1] [nM]	IC50 [2] [nM]	Structure (SMILES)
16.1	1000 to 10000	O=C(NC1CC1)c1ccc(-c2cnc3c(NCC4CCOCC4)cc(OCC45CC6CC(CC(C6)C4)C5)nn23)cc1 [Example 2-190]
12	50 to 500	CC(=O)N1CC=C(c2cc(NCC3CCOCC3)c3ncc(-c4ccc(C(=O)NC5CC5)cc4)n3n2)CC1 [Example 2-213]
9.7	50 to 500	Nc1cc(C(=O)NC2CC2)ccc1-c1cnc2c(NCC3CCOCC3)cc(NC3CCCC3)nn12 [Example 2-225]
7.4	50 to 500	N#Cc1ccc(-c2cc(NCC3CCOCC3)c3ncc(-c4ccc(C(=O)NC5CC5)cc4)n3n2)cn1 [Example 2-199]
6.9	50 to 500	Cc1cc(C(=O)NC2CC2)ccc1-c1cnc2c(NCC3CCOCC3)cc(NC3CCCC3)nn12 [Example 2-226]
5.7	500 to 1000	O=C(NC1CC1)c1ccc(-c2cnc3c(NCC4CCOCC4)cc(C=C4CCCCC4)nn23)cc1 [Example 2-207]
5.7	50 to 500	O=C(NC1CC1)c1ccc(-c2cnc3c(NCC4CCOCC4)cc(NC4CCCC4)nn23)c(Cl)c1 [Example 2-231]
5.7	500 to 1000	COc1cc(-c2cnc3c(NCC4CCOCC4)cc(NC4CCCC4)nn23)ccc1C(=O)NC1CC1 [Example 2-233]
4.7	50 to 500	N#Cc1cccc(-c2cc(NCC3CCOCC3)c3ncc(-c4ccc(C(=O)NC5CC5)cc4)n3n2)c1 [Example 2-203]
4.3	≤ 50	O=C(NC1CC1)c1ccc(-c2cnc3c(NCC4CCOCC4)cc(NC4CCCC4)nn23)cc1Cl [Example 2-230]
3.9	≤ 50	CC(C)(Nc1cc(NCC2CCOCC2)c2ncc(-c3ccc(C(=O)NC4CC4)c(Cl)c3)n2n1)C(F)(F)F [Example 2-220]
3.5	50 to 500	Cc1cc(C#N)ccc1-c1cc(NCC2CCOCC2)c2ncc(-c3ccc(C(=O)NC4CC4)cc3)n2n1 [Example 2-202]
2.8	50 to 500	Cc1cc(-c2cnc3c(NCC4CCOCC4)cc(NC4CCCC4)nn23)ccc1C(=O)NC1CC1 [Example 2-232]
2.7	50 to 500	O=C(NC1CC1)c1ccc(-c2cnc3c(NCC4CCOCC4)c(Cl)c(OC4CCCC4)nn23)cc1 [Example 2-216]
2.1	50 to 500	CC1(Oc2cc(NCC3CCOCC3)c3ncc(-c4ccc(C(=O)NC5CC5)cc4)n3n2)CCCC1 [Example 2-192]
